The values that follow are results of earlier work, collected in US20080096864A1, “Treatment Of Gastrointestinal Stromal Tumors With Imatinib And Midostaurin” (priority 2003, published 2008).

Each structure is given as a SMILES string.

The data set concerns advanced GIST. The following applies: GIST patients on imatinib, one study.

With `Cc1ccc(NC(=O)c2ccc(CN3CCN(C)CC3)cc2)cc1Nc1nccc(-c2cccnc2)n1` [imatinib], the “primary resistance to imatinib, share of patients” value is 13.7 % of patients.
